Positions of bridges follow the written chain, without caps; N, C: chain ends. Non-standard residues stand in square brackets, D forms with d. Residues, ends and D or L forms follow the SMILES beside them. Trp(1-CH2COOH) = N[C@@H](Cc1cn(CC(=O)O)c2ccccc12)C(=O)O; NMePhe(3-Cl) = CN[C@@H](Cc1cccc(Cl)c1)C(=O)O; 3Pal(6-NH2) = Nc1ccc(C[C@H](N)C(=O)O)cn1; NMe3Pal = CN[C@@H](Cc1cccnc1)C(=O)O; NMeY = CN[C@@H](Cc1ccc(O)cc1)C(=O)O; 3Pal = N[C@@H](Cc1cccnc1)C(=O)O; 4Pal = N[C@@H](Cc1ccncc1)C(=O)O; PEG4 = NCCOCCOCCOCCOCCC(=O)O
The compounds below were run against T1, human transferrin receptor (hTfR) (Homo sapiens, UniProt P02786) (assay: Evaluation of molecular interaction between transferrin receptor (hTfR) and peptide using surface plasmon resonance (SPR)). Details: surface plasmon resonance, binding to hTfR; KD class symbol; read-out: SPR (KD value).
T1 construct: made in house
T1 sequence (P02786 89-760 limits assumed): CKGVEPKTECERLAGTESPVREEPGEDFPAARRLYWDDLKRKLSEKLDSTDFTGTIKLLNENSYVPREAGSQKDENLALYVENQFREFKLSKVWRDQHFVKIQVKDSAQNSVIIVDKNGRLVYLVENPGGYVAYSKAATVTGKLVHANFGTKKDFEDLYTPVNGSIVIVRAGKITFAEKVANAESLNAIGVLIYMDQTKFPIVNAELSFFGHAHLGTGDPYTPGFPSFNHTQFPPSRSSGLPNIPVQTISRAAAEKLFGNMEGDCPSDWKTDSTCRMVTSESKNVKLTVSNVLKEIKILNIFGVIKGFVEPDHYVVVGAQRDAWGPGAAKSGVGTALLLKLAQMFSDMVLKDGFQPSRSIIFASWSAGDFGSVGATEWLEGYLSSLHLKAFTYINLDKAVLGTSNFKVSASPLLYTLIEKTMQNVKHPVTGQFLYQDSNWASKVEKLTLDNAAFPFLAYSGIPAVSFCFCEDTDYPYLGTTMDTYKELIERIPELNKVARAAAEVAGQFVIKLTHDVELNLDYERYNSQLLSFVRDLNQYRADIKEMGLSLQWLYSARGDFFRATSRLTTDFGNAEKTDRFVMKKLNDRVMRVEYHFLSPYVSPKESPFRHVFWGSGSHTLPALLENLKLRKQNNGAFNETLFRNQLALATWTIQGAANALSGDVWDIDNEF
Type: binding
In short: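 Single-cycle SPR kinetics, KD by least-squares sensorgram fitting, with peptide series of 100, 50, 25, 10 and 5 nM. Running buffer: 10 mM HEPES pH 8.0, 150 mM NaCl, 0.05% Tween 20, 0.1% BSA, 1.0% DMSO. Surface: hTfR dimer covalently coupled (EDC/NHS) onto Ni-NTA chip.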

Kd, 1 to 100 nM:
CC[C@H](C)[C@@H]1NC(=O)[C@H](Cc2cccnc2)NC(=O)[C@H](Cc2ccc(O)cc2)NC(=O)[C@H](CC(N)=O)NC(=O)[C@H](Cc2cn(CC(=O)O)c3ccccc23)NC(=O)[C@H](C(C)C)NC(=O)[C@H](Cc2cccc(Cl)c2)N(C)C(=O)[C@H](C(C)C)NC(=O)[C@H](C)NC(=O)CSC[C@@H](C(=O)NCCOCCOCCOCCOCCC(N)=O)NC(=O)[C@H](Cc2ccc(O)cc2)N(C)C(=O)[C@H](Cc2ccncc2)NC(=O)[C@H](CCCNC(=N)N)NC(=O)[C@H](CCCNC(=N)N)NC(=O)[C@H]([C@@H](C)CC)NC1=O [compound 48] ({CH2CO}-AV[NMePhe(3-Cl)]V[Trp(1-CH2COOH)]NY[3Pal]IIRR[4Pal][NMeY]C[PEG4]-NH2; thioether N-15)
CC[C@H](C)[C@@H]1NC(=O)[C@H](Cc2cccnc2)NC(=O)[C@H](Cc2ccc(N)nc2)NC(=O)[C@H](CC(N)=O)NC(=O)[C@H](Cc2cn(CC(=O)O)c3ccccc23)NC(=O)[C@H](C(C)C)NC(=O)[C@H](Cc2cccc(Cl)c2)N(C)C(=O)[C@H](C(C)C)NC(=O)[C@H](C)NC(=O)CSC[C@@H](C(=O)NCCOCCOCCOCCOCCC(N)=O)NC(=O)[C@H](Cc2ccc(O)cc2)N(C)C(=O)[C@H](Cc2ccncc2)NC(=O)[C@H](CCCNC(=N)N)NC(=O)[C@H](CCCNC(=N)N)NC(=O)[C@H]([C@@H](C)CC)NC1=O [compound 49] ({CH2CO}-AV[NMePhe(3-Cl)]V[Trp(1-CH2COOH)]N[3Pal(6-NH2)][3Pal]IIRR[4Pal][NMeY]C[PEG4]-NH2; thioether N-15)
CC[C@H](C)[C@@H]1NC(=O)[C@H](Cc2ccc(OC)cc2)NC(=O)[C@H](Cc2ccc(N)nc2)NC(=O)[C@H](CC(N)=O)NC(=O)[C@H](Cc2cn(CC(=O)O)c3ccccc23)NC(=O)[C@H](C(C)C)NC(=O)[C@H](Cc2cccc(Cl)c2)N(C)C(=O)[C@H](C(C)C)NC(=O)[C@H](C)NC(=O)CSC[C@@H](C(=O)NCCOCCOCCOCCOCCC(N)=O)NC(=O)[C@H](Cc2ccc(O)cc2)N(C)C(=O)[C@H](Cc2ccncc2)NC(=O)[C@H](CCCNC(=N)N)NC(=O)[C@H](CCCNC(=N)N)NC(=O)[C@H]([C@@H](C)CC)NC1=O [compound 50]
CC[C@H](C)[C@@H]1NC(=O)[C@H](Cc2cccnc2)NC(=O)[C@H](Cc2ccc(O)cc2)NC(=O)[C@H](CC(N)=O)NC(=O)[C@H](Cc2c[nH]c3ccccc23)NC(=O)[C@H](C(C)C)NC(=O)[C@H](Cc2cccc(Cl)c2)N(C)C(=O)[C@H](C(C)C)NC(=O)[C@H](C)NC(=O)CSC[C@@H](C(=O)NCCOCCOCCOCCOCCC(N)=O)NC(=O)[C@H](Cc2ccc(O)cc2)N(C)C(=O)[C@H](Cc2ccncc2)NC(=O)[C@H](CCCNC(=N)N)NC(=O)[C@H](CCCNC(=N)N)NC(=O)[C@H]([C@@H](C)CC)NC1=O [compound 51] ({CH2CO}-AV[NMePhe(3-Cl)]VWNY[3Pal]IIRR[4Pal][NMeY]C[PEG4]-NH2; thioether N-15)
CC[C@H](C)[C@@H]1NC(=O)[C@H](Cc2cccnc2)NC(=O)[C@H](Cc2ccc(N)nc2)NC(=O)[C@H](CC(N)=O)NC(=O)[C@H](Cc2c[nH]c3ccccc23)NC(=O)[C@H](C(C)C)NC(=O)[C@H](Cc2cccc(Cl)c2)N(C)C(=O)[C@H](C(C)C)NC(=O)[C@H](C)NC(=O)CSC[C@@H](C(=O)NCCOCCOCCOCCOCCC(N)=O)NC(=O)[C@H](Cc2ccc(O)cc2)N(C)C(=O)[C@H](Cc2ccncc2)NC(=O)[C@H](CCCNC(=N)N)NC(=O)[C@H](CCCNC(=N)N)NC(=O)[C@H]([C@@H](C)CC)NC1=O [compound 52] ({CH2CO}-AV[NMePhe(3-Cl)]VWN[3Pal(6-NH2)][3Pal]IIRR[4Pal][NMeY]C[PEG4]-NH2; thioether N-15)
CC[C@H](C)[C@@H]1NC(=O)[C@H](Cc2ccc(OC)cc2)NC(=O)[C@H](Cc2ccc(N)nc2)NC(=O)[C@H](CC(N)=O)NC(=O)[C@H](Cc2c[nH]c3ccccc23)NC(=O)[C@H](C(C)C)NC(=O)[C@H](Cc2cccc(Cl)c2)N(C)C(=O)[C@H](C(C)C)NC(=O)[C@H](C)NC(=O)CSC[C@@H](C(=O)NCCOCCOCCOCCOCCC(N)=O)NC(=O)[C@H](Cc2ccc(O)cc2)N(C)C(=O)[C@H](Cc2ccncc2)NC(=O)[C@H](CCCNC(=N)N)NC(=O)[C@H](CCCNC(=N)N)NC(=O)[C@H]([C@@H](C)CC)NC1=O [compound 53]
CC[C@H](C)[C@@H]1NC(=O)[C@H](Cc2ccncc2)NC(=O)[C@H](Cc2ccc(O)cc2)NC(=O)[C@H](CC(N)=O)NC(=O)[C@H](Cc2c[nH]c3ccccc23)NC(=O)[C@H](C(C)C)NC(=O)[C@H](Cc2cccc(Cl)c2)N(C)C(=O)[C@H](C(C)C)NC(=O)[C@H](C)NC(=O)CSC[C@@H](C(=O)NCCOCCOCCOCCOCCC(N)=O)NC(=O)[C@H](Cc2ccc(O)cc2)N(C)C(=O)[C@H](Cc2ccncc2)NC(=O)[C@H](CCCNC(=N)N)NC(=O)[C@H](CCCNC(=N)N)NC(=O)[C@H]([C@@H](C)CC)NC1=O [compound 54] ({CH2CO}-AV[NMePhe(3-Cl)]VWNY[4Pal]IIRR[4Pal][NMeY]C[PEG4]-NH2; thioether N-15)
CC[C@H](C)[C@@H]1NC(=O)[C@H](Cc2ccc(OC)cc2)NC(=O)[C@H](Cc2ccc(O)cc2)NC(=O)[C@H](CC(N)=O)NC(=O)[C@H](Cc2c[nH]c3ccccc23)NC(=O)[C@H](C(C)C)NC(=O)[C@H](Cc2cccnc2)N(C)C(=O)[C@H](C(C)C)NC(=O)[C@H](C)NC(=O)CSC[C@@H](C(=O)NCCOCCOCCOCCOCCC(N)=O)NC(=O)[C@H](Cc2ccc(O)cc2)N(C)C(=O)[C@H](Cc2ccccc2)NC(=O)[C@H](CCCNC(=N)N)NC(=O)[C@H](CCCNC(=N)N)NC(=O)[C@H]([C@@H](C)CC)NC1=O [compound 55]
CC[C@H](C)[C@@H]1NC(=O)[C@H](Cc2ccc(OC)cc2)NC(=O)[C@H](Cc2ccc(O)cc2)NC(=O)[C@H](CC(N)=O)NC(=O)[C@H](Cc2c[nH]c3ccccc23)NC(=O)[C@H](C(C)C)NC(=O)[C@H](Cc2ccncc2)N(C)C(=O)[C@H](C(C)C)NC(=O)[C@H](C)NC(=O)CSC[C@@H](C(=O)NCCOCCOCCOCCOCCC(N)=O)NC(=O)[C@H](Cc2ccc(O)cc2)N(C)C(=O)[C@H](Cc2ccccc2)NC(=O)[C@H](CCCNC(=N)N)NC(=O)[C@H](CCCNC(=N)N)NC(=O)[C@H]([C@@H](C)CC)NC1=O [compound 56]
CC[C@H](C)[C@@H]1NC(=O)[C@H](Cc2ccc(OC)cc2)NC(=O)[C@H](Cc2ccc(N)nc2)NC(=O)[C@H](CC(N)=O)NC(=O)[C@H](Cc2c[nH]c3ccccc23)NC(=O)[C@H](C(C)C)NC(=O)[C@H](Cc2cccc(Cl)c2)N(C)C(=O)[C@H](C(C)C)NC(=O)[C@H](C)NC(=O)CSC[C@@H](C(=O)NCCOCCOCCOCCOCCC(N)=O)NC(=O)[C@H](Cc2ccc(O)cc2)N(C)C(=O)[C@H](Cc2ccccc2)NC(=O)[C@H](CCCNC(=N)N)NC(=O)[C@H](CCCNC(=N)N)NC(=O)[C@H]([C@@H](C)CC)NC1=O [compound 57] ({CH2CO}-AV[NMePhe(3-Cl)]VWN[3Pal(6-NH2)]Y(Me)IIRRF[NMeY]C[PEG4]-NH2; thioether N-15)
CC[C@H](C)[C@@H]1NC(=O)[C@H](Cc2ccc(OC)cc2)NC(=O)[C@H](Cc2ccc(O)cc2)NC(=O)[C@H](CC(N)=O)NC(=O)[C@H](Cc2c[nH]c3ccccc23)NC(=O)[C@H](C(C)C)NC(=O)[C@H](Cc2cccnc2)N(C)C(=O)[C@H](C(C)C)NC(=O)[C@H](C)NC(=O)CSC[C@@H](C(=O)NCCOCCOCCOCCOCCC(N)=O)NC(=O)[C@H](Cc2ccc(O)cc2)N(C)C(=O)[C@H](Cc2ccncc2)NC(=O)[C@H](CCCNC(=N)N)NC(=O)[C@H](CCCNC(=N)N)NC(=O)[C@H]([C@@H](C)CC)NC1=O [compound 58] ({CH2CO}-AV[NMe3Pal]VWNYY(Me)IIRR[4Pal][NMeY]C[PEG4]-NH2; thioether N-15)

From patent US20260116920A1, “HUMAN TRANSFERRIN RECEPTOR BINDING PEPTIDE” (PEPTIDREAM INC., priority 2021, published 2026)
